Assay [1] concerns EPOR. The assay is described as follows: Time-series immunoblot of EPOR protein level. The following applies: PC12 cells; 1 nM; normalized by β-Actin; n = 3. Format: cell-based, rat. The method, then:
(§1) PC12 or HT-22 cells were lysed in 100 mM Tris-Cl (pH 6.8) with 4% SDS. The lysates were loaded onto sodium dodecyl sulfate-polyacrylamide gel electrophoresis (SDS-PAGE) (8–10%), and the proteins were transferred onto the nitrocellulose membrane. The membrane was blocked with 0.1% TBST and 5% non-fat dry milk at 25°C for 30 min. Primary antibodies were diluted in 0.1% TBST and 3% bovine serum albumin (BSA). The primary antibodies included anti-pJAK2 (#3776, Cell Signaling Technology, USA), anti-JAK2 (#3230, Cell Signaling Technology, USA), anti-pSTAT5 (#9351, Cell Signaling Technology, USA), anti-STAT5 ([…], Cell Signaling Technology, USA), anti-pAKT (#9271, Cell Signaling Technology, USA), anti-AKT (#9272, Cell Signaling Technology, USA), anti-pERK (#9101, Cell Signaling Technology, USA) anti-ERK (#9102, Cell Signaling Technology, USA), anti-EPOR (#sc-365662, Santa Cruz Biotechnology, USA), anti-β-Actin (Santa Cruz Biotechnology, USA), anti-Bax (Santa Cruz Biotechnology, USA), anti-cleaved Casp3 (Cell Signaling Technology, USA), and anti-cleaved Parp1 (Cell Signaling Technology, USA).

The test system of assay [2] is cleaved Parp1. The assay is described as follows: Immunoblot of cleaved Parp1 after hypoxia and re-oxygenation. Format: cell-based, mouse. The following applies: HT-22 cells; reEPO 0.5 IU/ml, ML1-h3 1 ng/ml; normalized by β-Actin; n = 6. The method, then:
as §1
The HT-22 cells were seeded onto 96-well or 6-well plates. The next day, HT-22 cells were placed inside a sealed air-tight container consisting of an anaeropack (Mitsubishi Gas Company, Tokyo, Japan), which can induce a hypoxic atmosphere by absorbing oxygen and generating carbon dioxide. […]
(A western blot detects proteins with antibodies after separation by electrophoresis.)

The test system of assay [3] is JAK2. Put plainly: Time-series immunoblot of phosphorylated JAK2. The class given is cell-based, rat. The note with it: undifferentiated PC12 cells; 1 nM; up to 90 min; normalized by JAK2; n = 3. The method, then: as §1
The test system of assay [4] is differentiated neuronal PC12 cells. The assay is described as follows: Cell viability (MTS) under H2O2-induced oxidative stress. The class given is cell-based, rat. The following applies: H2O2 for 24 h; reEPO 0.5 IU/ml, ML1 1 ng/ml or ML1 analogs; n = 5; Fig. 4a. The procedure:
(§2) PC12 cells (#CRL-1721, ATCC, USA), a rat pheochromocytoma cell line derived from the adrenal medulla (#CRL-1721, ATCC, USA), were seeded on a dish, which was coated by poly L-lysine (0.01%; Sigma Chemical Co., USA), and grown in RPMI 1640 medium (#11875093, Gibco, USA), supplemented with 10% heat-inactivated horse serum (#26050088, Gibco, USA), 5% fetal bovine serum (FBS) (#SH30919.03, Hyclone, USA), and 1% penicillin/streptomycin at 37°C with 5% CO2. For neuronal differentiation, PC12 cells were plated at a density of 1.25x10^3 cell/cm^2 into 96-well plates coated with collagen 1 (#354236, BD Biosciences, USA) and grown in RPMI 1640 medium supplemented with 50 ng/ml nerve growth factor (NGF) (BD Biosciences, USA) and 0.5% FBS for 10 days. The NGF-supplemented media was replaced with fresh media every 3 days during neuronal differentiation.
(§3) Cell viability was evaluated by 3-[(4,5-dimethylthiazol-2-yl)-5,3-carboxymethoxyphenyl]-2-(4-sulfophenyl)-2H tetrazolium, inner salt (MTS) reduction assay (CellTiter 96 Aqueous One Solution Cell Proliferation Assay, Promega, Madison, WI, USA). Briefly, differentiated neuronal-PC12 cells were treated with H2O2 (300 μM) with or without reEPO and peptides for 24 h. The PC12 cells were washed with PBS; 20 ul MTS solution was added to each well with 100 μl PBS, and the cells were incubated for 3 h at 37°C and 5% CO2. The intracellular soluble formazan produced by cellular reduction of the MTS was determined by recording the absorbance at 490 nm using a microplate reader (VersaMax, Molecular Devices, USA). Cell proliferation was also evaluated by the MTS assay. Undifferentiated PC12 cells were seeded into a 96-well plate (5x10^4 cells/well). The next day, the initial cell number was counted; after 48 h, under low FBS concentration (0.5%), with or without reEPO and peptides, cell number was measured by the MTS assay.

Assay [5] deals with ERK. Put plainly: Time-series immunoblot of phosphorylated ERK. Format: cell-based, rat. The note with it: PC12 cells; 1 nM; peak at 15 min, below basal at 30 min, then recovery; n = 3. The method, then: as §1
The subject of assay [6] is undifferentiated PC12 cells. Put plainly: Cell proliferation (MTS) under low serum. The class given is cell-based, rat. The following applies: 0.5% fetal bovine serum, 48 h, reEPO 10 IU/ml, peptides 10 ng/ml, n = 5, Fig. 4c. The method, then: PC12 cells (#CRL-1721, ATCC, USA), a rat pheochromocytoma cell line derived from the adrenal medulla (#CRL-1721, ATCC, USA), were seeded on a dish, which was coated by poly L-lysine (0.01%; Sigma Chemical Co., USA), and grown in RPMI 1640 medium (#11875093, Gibco, USA), supplemented with 10% heat-inactivated horse serum (#26050088, Gibco, USA), 5% fetal bovine serum (FBS) (#SH30919.03, Hyclone, USA), and 1% penicillin/streptomycin at 37°C with 5% CO2. […]
as §3, with “Briefly, differentiated neuronal-PC12 cells were treated with H2O2 (300 μM) with or without reEPO and peptides for 24 h. The PC12 cells were washed with PBS; 20 ul MTS solution was added to each well with 100 μl PBS, and the cells were incubated for 3 h at 37°C and 5% CO2.” left out, “Undifferentiated PC12 cells were seeded into a 96-well plate (5x10^4 cells/well).” left out

Assay [7] relates to differentiated neuronal PC12 cells. The assay is described as follows: Cellular ROS level by H2DCFDA under H2O2. The following applies: H2O2 for 6 h; H2DCFDA staining; n = 5; Fig. 4b. The class given is cell-based, rat. The procedure: as §2
The cellular ROS level was measured using 2′,7′-dichlorodihydrofluorescein diacetate (H2DCFDA) (#D399, Invitrogen, USA). The cells were incubated with 5 μM H2DCFDA in PBS for 30 min, washed with PBS, and then resuspended in the medium for 2 h. After treatment of H2O2 without or with reEPO, or peptide, we monitored the oxidative stress by measuring the fluorescence intensities of H2DCFDA by using excitation and emission wavelengths of 485 nm and 535 nm, respectively.

In assay [8] the test system is AKT. Put plainly: Time-series immunoblot of phosphorylated AKT. The class given is cell-based, rat. The following applies: PC12 cells; 1 nM; deficient level by 30 min, maintained at 90 min; n = 3. The method, then:
as §1

Regarding “reEPO: Recombinant human EPO (Epoetin-α, CJ HealthCare Corporation)”, the “Level of EPOR protein over time” value in assay [1] was “gradually decreased by reEPO for 15–45 min, and subsequently, it rapidly recovered to the basal level at 60 min”. Further, the “Level of cleaved Parp1 under H/R” value in assay [2] was “efficiently reduced the levels of Bax, cleaved Caspase 3, and cleaved Parp1”. For the same substance, in assay [3], the “Level of phosphorylated JAK2 (pJAK2) over time” value is “upregulated the level of phosphorylated JAK2 in ^1007/1008Tyr (pJAK2), an active form of JAK2 at 30–60 min; pJAK2 returned to the basal level at 90 min”. In addition, the “Cell death under H2O2-induced oxidative stress (cell viability)” value in assay [4] is “significantly suppressed the cell death”. The “Level of phosphorylated ERK (pERK) over time” value in assay [5] is “acutely increased the level of phosphorylated ERK”. Also, in assay [6], the “Cell proliferation (cell number)” value is reported as “significantly increased the proliferation”. Further, the “Level of reactive oxygen species (ROS) induced by H2O2” value in assay [7] is given as “decreased the levels of reactive oxygen species (ROS)”. In addition, the “Level of phosphorylated AKT (pAKT) over time” value in assay [8] is reported as “gradually reduced phosphorylated AKT”.

Source of the values: publication PMC8715119, “Second-generation non-hematopoietic erythropoietin-derived peptide for neuroprotection” (Redox Biology, 2021).
